Reference: patent US10016376B2, “Composition for alleviating nephrotoxicity caused by immunosuppressive drug, comprising metformin, and composition for preventing or treating immune disease, comprising the same” (THE CATHOLIC UNIVERSITY OF KOREA INDUSTRY-ACADEMIC …, priority 2014, dated 2018)

What was measured:
[1] = blood concentration of FK506 in whole blood (LC/MS/MS); format: in vivo; conditions: Sprague-Dawley, rat, subcutaneous; rats, whole blood after 4 weeks; FK506 1.5 mg/kg s.c., with or without metformin 250 mg/kg oral
Experimental: Thereafter, a blood concentration of FK506 in the collected whole blood was measured using a mass spectrometer (API 3000 LC/MS/MS, Applied Biocystem, Foster City, Calif.).

[2] = test system: allogeneic reactive T cells; assay: mixed lymphocyte reaction (MLR), [3H]-thymidine uptake; format: cell-based, Balb/c; conditions: vs untreated Allo control
Experimental: To examine an immunomodulatory effect when T cells were co-treated with metformin and FK506 under in vitro allo-response conditions, an effect of metformin and FK506 on the proliferation of allogeneic reactive T cells was examined using a mixed lymphocyte culture method (i.e., a mixed lymphocyte reaction (MLR)) (FIG. 3). […] In this case, the T cells were treated separately or together with metformin (200 μM) or FK506 (1 nM or 100 nM) according to the experimental conditions, and then cultured for 3 days to stimulate an allogeneic response. On the last day of culture, [^3H]-thymidine was added, and the T cells were additionally cultured for 18 hours. Then, a level of [^3H]-thymidine uptake was measured using a liquid scintillation counter (Beckman, USA), and expressed as a cpm value. The statistical analysis was carried out using a Graph prism (t-test, ANOVA), and the statistical significance was p<0.05.

[3] = test system: IFN-γ; assay: ELISA of IFN-γ secreted by allogeneic reactive T cells in mixed lymphocyte culture; format: cell-based, Balb/c; conditions: metformin 200 μM, 3 days
Experimental: (§1) To examine an effect of metformin and FK506 on the secretion of inflammatory cytokines by allogeneic reactive T cells, the allogeneic reactive T cells were treated with metformin (200 μM) or FK506 (1 nM or 100 nM) according to the experimental conditions, and then cultured for 3 days under the same in vitro allo-response conditions as in <Example 2>. Thereafter, levels of IFN-γ and IL-17 secreted by the T cells in the resulting culture broth were measured using ELISA (FIG. 5). The statistical analysis was carried out using a Graph prism (t-test, ANOVA), and the statistical significance was p<0.05. […] Thereafter, levels of IFN-γ and IL-17 secreted by the T cells in the resulting culture broth were measured using ELISA (FIG. 6). The statistical analysis was carried out using a Graph prism (t-test, ANOVA), and the statistical significance was p<0.05.

[4] = test system: IL-17; assay: ELISA of IL-17 secreted by allogeneic reactive T cells in mixed lymphocyte culture; format: cell-based, Balb/c; conditions: metformin 200 μM, 3 days
Experimental: as §1

[5] = test system: Treg cells; assay: flow cytometry of Treg activity under anti-CD3 T cell activation conditions; format: cell-based, C57BL/6 mice; conditions: 3 days; for Treg activity (ratio of Foxp3+CD25+ cells to CD4+ T cells): metformin 200 μM, FK506 100 nM, anti-CD3 1 μg/ml
Experimental: An effect of metformin and FK506 on the activity of Treg cells under T cell activation conditions (anti-CD3 conditions) was examined (FIGS. 8A and 8B). Splenocytes obtained from normal C57BL/6 mice were seeded in a 24-well plate at a density of 1×10^6 cells/ml, treated with metformin (200 μM) or FK506 (100 nM) according to the experimental conditions, and then cultured for 3 days under anti-CD3 activation conditions (1 μg/ml). For the analysis using a flow cytometer, the cells were treated with an anti-CD4-percp antibody and an anti-CD25-APC antibody, reacted at 4° C. for 30 minutes, permeabilized, reacted with an anti-Foxp3-PE antibody, and then analyzed using the flow cytometer. To analyze the Treg activity, cells expressing a CD4+CD25+Foxp3 marker were gated and analyzed. For the results, the ratio of Foxp3+CD25+ cells to the whole cultured CD4+ T cells was plotted on a bar graph. The statistical analysis was carried out using a Graph prism (t-test, ANOVA), and the statistical significance was p<0.05.

[6] = test system: TNF-α; assay: TNF-α secreted by LPS-stimulated splenocytes; format: cell-based, C57BL/6 mice; conditions: LPS 100 ng/ml, metformin 200 μM, FK506 100 nM, 3 days; vs control (LPS)
Experimental: (§2) Concentrations of TNF-α and IL-6 present in the resulting culture broth were measured to compare the drug effects (FIG. 10). Also, a concentration of immunoglobulins (IgG) present in the culture broth was measured in the same cell culture conditions to compare the drug effects (FIG. 11). The statistical analysis was carried out using a Graph prism (t-test, ANOVA), and the statistical significance was p<0.05.

[7] = test system: IL-6; assay: IL-6 secreted by LPS-stimulated splenocytes; format: cell-based, C57BL/6 mice; conditions: LPS 100 ng/ml, metformin 200 μM, FK506 100 nM, 3 days; vs control (LPS)
Experimental: as §2

[8] = test system: immunoglobulins (IgG); assay: immunoglobulins (IgG) secreted by LPS-stimulated splenocytes; format: cell-based, C57BL/6 mice; conditions: LPS 100 ng/ml, metformin 200 μM, FK506 100 nM, 3 days; vs control (LPS)
Experimental: as §2

[9] = test system: Splenocytes obtained from normal C57BL/6 mice; assay: MTT assay under T cell activation conditions (anti-CD3); conditions: metformin 200 μM, FK506 100 nM, 3 days, anti-CD3 1 μg/ml; vs control (aCD3)
Experimental: Splenocytes obtained from normal C57BL/6 mice were seeded in a 96-well plate at a density of 2×10^5 cells/ml, treated with metformin (200 μM) or FK506 (100 nM) according to the experimental conditions, and then cultured for 3 days under anti-CD3 activation conditions (1 μg/ml). In the MTT assay, a 3-(4,5dimethyl-thiazol-2-yl)-2,5-diphenyltetrazolium bromide compound was added before 4 hours of cell harvesting, and reacted for 4 hours. Thereafter, each well was treated with DMSO to measure the optical density at a wavelength of 540 nm.

[10] = metformin 200 μM, FK506 1 nM or 100 nM, 3 days

SMILES | concentration at 4 weeks [1] [ng/mL] | proliferation of T cells ([3H]-thymidine uptake) [2, 10] | concentration of IFN-γ in the culture broth ([3]; FK506 1 nM or 100 nM) | concentration of IL-17 in the culture broth ([4]; FK506 1 nM or 100 nM) | Treg activity (ratio of Foxp3+CD25+ cells to CD4+ T cells) [5] | concentration of TNF-α in the culture broth [6] | concentration of IL-6 in the culture broth [7] | concentration of immunoglobulins (IgG) in the culture broth [8] | proliferation of T cells ([3H]-thymidine uptake) ([2]; Met 200 μM or 1,000 μM, CsA 10 nM or 100 nM, co-administered metformin 200 μM) | concentration of IFN-γ in the culture broth ([3]; CsA 10 nM or 100 nM) | concentration of IL-17 in the culture broth ([4]; CsA 10 nM or 100 nM) | cytotoxicity, optical density at 540 nm (MTT) [9] | Treg level/activity (ratio of Foxp3+CD25+ cells to CD4+ T cells) ([5]; metformin 1 mM, CsA 100 nM, anti-CD3)
C=CC[C@@H]1/C=C(\C)C[C@H](C)C[C@H](OC)[C@H]2O[C@@](O)(C(=O)C(=O)N3CCCC[C@H]3C(=O)O[C@H](/C(C)=C/[C@@H]3CC[C@@H](O)[C@H](OC)C3)[C@H](C)[C@@H](O)CC1=O)[C@H](C)C[C@@H]2OC [FK506, Tacrolimus] | 10.2 ± 1.3 | remarkably reduced in a concentration-dependent manner | reduced | reduced | increased | not highly reduced | not highly reduced | not significantly changed |  |  |  |  | 
CN(C)C(=N)NC(=N)N [metformin, Metformin] |  | suppressed | reduced | reduced | increased | not highly reduced | not highly reduced | not significantly changed | suppressed | reduced | reduced | no big difference in optical densities | increased
